Consider two compounds from PMC9856672, “SGC-CAMKK2-1: A Chemical Probe for CAMKK2” (Cells, 2023).

The structures appear in SMILES notation.

One assay deals with T1, ADCK4 (Homo sapiens, UniProt Q96D53).
T1 construct: purchased Eurofins DiscoverX KINOMEscan
Description: KINOMEscan 1 μM, ADCK4. It counts as binding. The following applies: 1000 nM; Entrez ADCK4; read-out: Percent Control. The text has this:
(§1) Supplement cells-12-00287-s001.zip/File S2. KinomeScan data for the CAMKK2 probe and negative control.xlsx, sheet "SGC-CAMKK2-1" | column: Percent Control

The target in a further assay is T2, VRK2 (Homo sapiens, UniProt Q86Y07).
T2 construct: purchased Eurofins DiscoverX KINOMEscan
Description: DiscoverX KINOMEscan binding assay at 1 μM, VRK2. As to conditions: Compound Concentration 1000 nM, read-out: Percent Control.
From the text: as §1

A further assay deals with T3, DDR1 (Homo sapiens, UniProt Q08345).
T3 construct: purchased Eurofins DiscoverX KINOMEscan
Description: KINOMEscan 1 μM, DDR1. The following applies: 1000 nM; Entrez DDR1; read-out: Percent Control. It counts as binding.
From the text: as §1

The target of assay [1] is T4, JAK3(JH1domain-catalytic) (Homo sapiens, UniProt P52333).
T4 construct: JAK3(JH1domain-catalytic); purchased Eurofins DiscoverX KINOMEscan
The assay can be described thus: KINOMEscan 1 μM, JAK3(JH1domain-catalytic). It counts as binding. As to conditions: 1000 nM; Entrez JAK3; read-out: Percent Control.
From the text: as §1

Another assay has as its target T5, QSK (Homo sapiens, UniProt Q9Y2K2).
T5 construct: purchased Eurofins DiscoverX KINOMEscan
Description: DiscoverX KINOMEscan binding assay at 1 μM, QSK. As to conditions: QSK (KIAA0999); Compound Concentration 1000 nM; read-out: Percent Control.
From the text: as §1

The target in a further assay is T6, CSNK1G1 (Homo sapiens, UniProt Q9HCP0).
T6 construct: purchased Eurofins DiscoverX KINOMEscan
The assay can be described thus: KINOMEscan 1 μM, CSNK1G1. It counts as binding. As to conditions: 1000 nM; Entrez CSNK1G1; read-out: Percent Control.
From the text: as §1

The next assay addresses T7, PRKD3 (Homo sapiens, UniProt O94806).
T7 construct: purchased Eurofins DiscoverX KINOMEscan
Description: KINOMEscan 1 μM, PRKD3. The assay is classed as binding. The following applies: 1000 nM; Entrez PRKD3; read-out: Percent Control.
From the text: as §1

Another assay concerns the target T8, RET(V804M) (Homo sapiens, UniProt P07949, V804M).
T8 construct: purchased Eurofins DiscoverX KINOMEscan
The assay can be described thus: DiscoverX KINOMEscan binding assay at 1 μM, RET(V804M). The following applies: Compound Concentration 1000 nM, read-out: Percent Control.
From the text: as §1

For another assay, the target named is T9, TSSK1B (Homo sapiens, UniProt Q9BXA7).
T9 construct: purchased Eurofins DiscoverX KINOMEscan
The assay can be described thus: DiscoverX KINOMEscan binding assay at 1 μM, TSSK1B. As to conditions: Compound Concentration 1000 nM, read-out: Percent Control.
From the text: as §1

A further assay addresses T10, YANK3 (Homo sapiens, UniProt Q86UX6).
T10 construct: purchased Eurofins DiscoverX KINOMEscan
The assay can be described thus: DiscoverX KINOMEscan binding assay at 1 μM, YANK3. The following applies: YANK3 (STK32C); Compound Concentration 1000 nM; read-out: Percent Control.
From the text: as §1

Assay [2] addresses T11, TYK2(JH2domain-pseudokinase) (Homo sapiens, UniProt P29597).
T11 construct: TYK2(JH2domain-pseudokinase); purchased Eurofins DiscoverX KINOMEscan
The assay can be described thus: DiscoverX KINOMEscan binding assay at 1 μM, TYK2(JH2domain-pseudokinase). The following applies: Compound Concentration 1000 nM, read-out: Percent Control.
From the text: as §1

The next assay addresses T12, CDKL3 (Homo sapiens, UniProt Q8IVW4).
T12 construct: purchased Eurofins DiscoverX KINOMEscan
Description: KINOMEscan 1 μM, CDKL3. It counts as binding. The following applies: 1000 nM; Entrez CDKL3; read-out: Percent Control.
From the text: as §1

A further assay concerns the target T13, TAK1 (Homo sapiens, UniProt O43318).
T13 construct: purchased Eurofins DiscoverX KINOMEscan
Description: KINOMEscan 1 μM, TAK1. The following applies: 1000 nM; Entrez MAP3K7; read-out: Percent Control. The assay is classed as binding.
From the text: as §1

A further assay addresses T14, PIK3CA(I800L) (Homo sapiens, UniProt P42336, I800L).
T14 construct: purchased Eurofins DiscoverX KINOMEscan
The assay can be described thus: KINOMEscan 1 μM, PIK3CA(I800L). The following applies: 1000 nM; Entrez PIK3CA; read-out: Percent Control. The assay is classed as binding.
From the text: as §1

In another assay the target is T15, OSR1 (Homo sapiens, UniProt O95747).
T15 construct: purchased Eurofins DiscoverX KINOMEscan
Description: KINOMEscan at 1 μM, OSR1. It counts as binding. As to conditions: 1000 nM, read-out: Percent Control. The text has this:
(§2) Supplement cells-12-00287-s001.zip/File S2. KinomeScan data for the CAMKK2 probe and negative control.xlsx, sheet "SGC-CAMKK2-1N" | column: Percent Control

For a further assay, the target named is T16, AKT1 (Homo sapiens, UniProt P31749).
T16 construct: purchased Eurofins DiscoverX KINOMEscan
Description: KINOMEscan at 1 μM, AKT1. The assay is classed as binding. As to conditions: 1000 nM, read-out: Percent Control.
From the text: as §2

A further assay addresses T17, RAF1 (Homo sapiens, UniProt P04049).
T17 construct: purchased Eurofins DiscoverX KINOMEscan
Description: KINOMEscan at 1 μM, RAF1. The assay is classed as binding. As to conditions: 1000 nM, read-out: Percent Control.
From the text: as §2

Another assay deals with T18, INSR (Homo sapiens, UniProt P06213).
T18 construct: purchased Eurofins DiscoverX KINOMEscan
The assay can be described thus: KINOMEscan at 1 μM, INSR. It counts as binding. The following applies: 1000 nM, read-out: Percent Control.
From the text: as §2

The target in another assay is T19, FLT3(D835Y) (Homo sapiens, UniProt P36888, D835Y).
T19 construct: purchased Eurofins DiscoverX KINOMEscan
Description: KINOMEscan binding assay at 1 μM, FLT3(D835Y). The following applies: Compound Concentration 1000 nM; read-out: Percent Control.
From the text: as §2

Another assay addresses T20, NEK2 (Homo sapiens, UniProt P51955).
T20 construct: purchased Eurofins DiscoverX KINOMEscan
Description: KINOMEscan at 1 μM, NEK2. The assay is classed as binding. The following applies: 1000 nM, read-out: Percent Control.
From the text: as §2

The target of another assay is T21, PIK3CG (Homo sapiens, UniProt P48736).
T21 construct: purchased Eurofins DiscoverX KINOMEscan
Description: KINOMEscan at 1 μM, PIK3CG. The assay is classed as binding. As to conditions: 1000 nM, read-out: Percent Control.
From the text: as §2

A further assay has as its target T22, KIT(V559D) (Homo sapiens, UniProt P10721, V559D).
T22 construct: purchased Eurofins DiscoverX KINOMEscan
The assay can be described thus: KINOMEscan at 1 μM, KIT(V559D). The assay is classed as binding. As to conditions: 1000 nM, read-out: Percent Control.
From the text: as §2

Another assay addresses T23, ULK1 (Homo sapiens, UniProt O75385).
T23 construct: purchased Eurofins DiscoverX KINOMEscan
The assay can be described thus: KINOMEscan at 1 μM, ULK1. As to conditions: 1000 nM, read-out: Percent Control. It counts as binding.
From the text: as §2

In another assay the target is T24, KIT(D816H) (Homo sapiens, UniProt P10721, D816H).
T24 construct: purchased Eurofins DiscoverX KINOMEscan
The assay can be described thus: KINOMEscan at 1 μM, KIT(D816H). It counts as binding. The following applies: 1000 nM, read-out: Percent Control.
From the text: as §2

A further assay deals with T25, TESK1 (Homo sapiens, UniProt Q15569).
T25 construct: purchased Eurofins DiscoverX KINOMEscan
The assay can be described thus: KINOMEscan at 1 μM, TESK1. The assay is classed as binding. As to conditions: 1000 nM, read-out: Percent Control.
From the text: as §2

Another assay addresses T26, PKMYT1 (Homo sapiens, UniProt Q99640).
T26 construct: purchased Eurofins DiscoverX KINOMEscan
Description: KINOMEscan at 1 μM, PKMYT1. It counts as binding. The following applies: 1000 nM, read-out: Percent Control.
From the text: as §2

In another assay the target is T27, PCTK3 (Homo sapiens, UniProt Q07002).
T27 construct: purchased Eurofins DiscoverX KINOMEscan
The assay can be described thus: KINOMEscan binding assay at 1 μM, PCTK3. The following applies: Compound Concentration 1000 nM; read-out: Percent Control.
From the text: as §2

In the next assay the target is T28, MAK (Homo sapiens, UniProt P20794).
T28 construct: purchased Eurofins DiscoverX KINOMEscan
The assay can be described thus: KINOMEscan at 1 μM, MAK. The assay is classed as binding. As to conditions: 1000 nM, read-out: Percent Control.
From the text: as §2

Another assay concerns the target T29, MEK4 (Homo sapiens, UniProt P45985).
T29 construct: purchased Eurofins DiscoverX KINOMEscan
The assay can be described thus: KINOMEscan at 1 μM, MEK4. The assay is classed as binding. The following applies: 1000 nM, read-out: Percent Control.
From the text: as §2

A further assay has as its target T30, LATS2 (Homo sapiens, UniProt Q9NRM7).
T30 construct: purchased Eurofins DiscoverX KINOMEscan
Description: KINOMEscan at 1 μM, LATS2. It counts as binding. As to conditions: 1000 nM, read-out: Percent Control.
From the text: as §2

The target in a further assay is T31, FLT3(K663Q) (Homo sapiens, UniProt P36888, K663Q).
T31 construct: purchased Eurofins DiscoverX KINOMEscan
The assay can be described thus: KINOMEscan binding assay at 1 μM, FLT3(K663Q). As to conditions: Compound Concentration 1000 nM; read-out: Percent Control.
From the text: as §2

A further assay deals with T32, ALK (Homo sapiens, UniProt Q9UM73).
T32 construct: purchased Eurofins DiscoverX KINOMEscan
Description: KINOMEscan at 1 μM, ALK. The assay is classed as binding. The following applies: 1000 nM, read-out: Percent Control.
From the text: as §2

Another assay concerns the target T33, EGFR(L858R) (Homo sapiens, UniProt P00533, L858R).
T33 construct: purchased Eurofins DiscoverX KINOMEscan
The assay can be described thus: KINOMEscan binding assay at 1 μM, EGFR(L858R). The following applies: Compound Concentration 1000 nM; read-out: Percent Control.
From the text: as §2

In another assay the target is T34, BTK (Homo sapiens, UniProt Q06187).
T34 construct: purchased Eurofins DiscoverX KINOMEscan
Description: KINOMEscan at 1 μM, BTK. It counts as binding. The following applies: 1000 nM, read-out: Percent Control.
From the text: as §2

T18 sequence (P06213 28-1382): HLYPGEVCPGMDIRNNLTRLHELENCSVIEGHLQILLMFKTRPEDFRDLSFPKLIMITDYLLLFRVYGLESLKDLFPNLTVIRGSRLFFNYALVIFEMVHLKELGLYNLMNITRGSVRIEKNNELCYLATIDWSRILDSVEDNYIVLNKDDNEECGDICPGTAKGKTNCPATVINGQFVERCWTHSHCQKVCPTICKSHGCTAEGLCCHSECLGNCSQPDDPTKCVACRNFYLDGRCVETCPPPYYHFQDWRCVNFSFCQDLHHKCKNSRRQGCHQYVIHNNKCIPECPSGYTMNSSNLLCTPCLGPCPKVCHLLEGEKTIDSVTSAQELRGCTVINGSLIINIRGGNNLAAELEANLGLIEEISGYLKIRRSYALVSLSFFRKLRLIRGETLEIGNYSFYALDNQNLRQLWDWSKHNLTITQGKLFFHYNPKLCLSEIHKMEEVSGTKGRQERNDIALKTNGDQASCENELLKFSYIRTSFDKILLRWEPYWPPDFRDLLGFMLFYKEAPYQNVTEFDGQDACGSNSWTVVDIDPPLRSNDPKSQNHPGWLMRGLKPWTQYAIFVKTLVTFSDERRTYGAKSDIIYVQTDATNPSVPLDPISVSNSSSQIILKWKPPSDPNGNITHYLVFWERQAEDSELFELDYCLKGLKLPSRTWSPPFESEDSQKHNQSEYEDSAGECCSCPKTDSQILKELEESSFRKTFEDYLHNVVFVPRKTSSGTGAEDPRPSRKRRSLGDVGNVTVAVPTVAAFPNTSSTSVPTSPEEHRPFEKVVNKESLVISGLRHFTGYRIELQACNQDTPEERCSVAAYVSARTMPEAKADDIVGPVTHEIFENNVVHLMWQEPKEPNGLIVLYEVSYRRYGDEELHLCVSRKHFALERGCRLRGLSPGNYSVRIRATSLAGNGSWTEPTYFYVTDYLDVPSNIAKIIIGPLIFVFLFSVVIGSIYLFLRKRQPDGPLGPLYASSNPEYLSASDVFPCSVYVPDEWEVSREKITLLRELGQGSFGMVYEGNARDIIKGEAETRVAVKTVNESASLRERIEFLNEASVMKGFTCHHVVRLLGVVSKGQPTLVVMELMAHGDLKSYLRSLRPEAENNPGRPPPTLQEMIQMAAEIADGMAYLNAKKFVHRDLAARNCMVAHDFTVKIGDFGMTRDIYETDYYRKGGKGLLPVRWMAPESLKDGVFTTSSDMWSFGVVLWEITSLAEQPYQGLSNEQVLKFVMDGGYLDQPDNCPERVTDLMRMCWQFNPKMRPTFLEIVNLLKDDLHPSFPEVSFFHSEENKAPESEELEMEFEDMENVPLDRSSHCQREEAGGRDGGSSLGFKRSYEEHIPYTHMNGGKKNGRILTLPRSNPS
T15 sequence (O95747 whole entry): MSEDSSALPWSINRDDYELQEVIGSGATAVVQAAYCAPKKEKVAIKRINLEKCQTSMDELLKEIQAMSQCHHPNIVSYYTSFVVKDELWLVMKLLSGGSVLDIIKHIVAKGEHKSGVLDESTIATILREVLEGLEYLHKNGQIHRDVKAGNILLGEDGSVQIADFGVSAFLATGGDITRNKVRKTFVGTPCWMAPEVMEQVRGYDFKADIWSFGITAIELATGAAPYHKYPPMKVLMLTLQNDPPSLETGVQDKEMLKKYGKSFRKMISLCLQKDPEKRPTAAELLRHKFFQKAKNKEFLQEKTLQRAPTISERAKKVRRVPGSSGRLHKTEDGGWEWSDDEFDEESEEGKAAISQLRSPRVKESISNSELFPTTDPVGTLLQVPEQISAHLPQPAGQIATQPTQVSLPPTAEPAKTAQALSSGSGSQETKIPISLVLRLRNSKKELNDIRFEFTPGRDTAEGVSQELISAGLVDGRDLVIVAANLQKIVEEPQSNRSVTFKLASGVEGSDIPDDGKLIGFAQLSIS
T34 sequence (Q06187 whole entry): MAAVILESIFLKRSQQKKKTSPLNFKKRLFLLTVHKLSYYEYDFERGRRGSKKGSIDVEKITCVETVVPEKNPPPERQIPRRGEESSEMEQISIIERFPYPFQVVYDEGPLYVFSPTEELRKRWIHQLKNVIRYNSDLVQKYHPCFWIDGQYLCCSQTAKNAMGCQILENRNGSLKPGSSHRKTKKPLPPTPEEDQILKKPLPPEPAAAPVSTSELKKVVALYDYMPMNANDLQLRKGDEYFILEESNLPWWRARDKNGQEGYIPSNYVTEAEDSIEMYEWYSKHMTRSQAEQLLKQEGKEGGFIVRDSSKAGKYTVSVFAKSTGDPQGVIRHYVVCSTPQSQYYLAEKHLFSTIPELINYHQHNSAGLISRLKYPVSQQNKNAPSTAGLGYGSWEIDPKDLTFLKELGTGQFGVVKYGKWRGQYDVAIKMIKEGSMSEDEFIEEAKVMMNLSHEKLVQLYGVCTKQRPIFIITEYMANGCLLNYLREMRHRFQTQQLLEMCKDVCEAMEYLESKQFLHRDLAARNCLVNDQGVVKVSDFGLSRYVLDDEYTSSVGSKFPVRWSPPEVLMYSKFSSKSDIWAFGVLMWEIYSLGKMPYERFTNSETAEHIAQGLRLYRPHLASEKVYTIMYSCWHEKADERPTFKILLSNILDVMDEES
T27 sequence (Q07002 whole entry): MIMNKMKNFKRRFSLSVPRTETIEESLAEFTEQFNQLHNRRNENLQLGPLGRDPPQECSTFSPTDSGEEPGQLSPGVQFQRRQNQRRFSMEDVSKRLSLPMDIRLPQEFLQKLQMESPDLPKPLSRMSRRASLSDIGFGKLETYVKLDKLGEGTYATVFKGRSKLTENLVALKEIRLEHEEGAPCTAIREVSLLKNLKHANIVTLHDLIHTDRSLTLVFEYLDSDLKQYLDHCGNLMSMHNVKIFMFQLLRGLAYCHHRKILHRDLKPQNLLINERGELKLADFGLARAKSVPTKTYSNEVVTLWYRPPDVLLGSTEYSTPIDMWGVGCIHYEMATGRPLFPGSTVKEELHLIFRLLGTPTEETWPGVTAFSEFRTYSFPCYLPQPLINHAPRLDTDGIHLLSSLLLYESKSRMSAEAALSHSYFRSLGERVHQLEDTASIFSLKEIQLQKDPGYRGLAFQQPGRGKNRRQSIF
T13 sequence (O43318 whole entry): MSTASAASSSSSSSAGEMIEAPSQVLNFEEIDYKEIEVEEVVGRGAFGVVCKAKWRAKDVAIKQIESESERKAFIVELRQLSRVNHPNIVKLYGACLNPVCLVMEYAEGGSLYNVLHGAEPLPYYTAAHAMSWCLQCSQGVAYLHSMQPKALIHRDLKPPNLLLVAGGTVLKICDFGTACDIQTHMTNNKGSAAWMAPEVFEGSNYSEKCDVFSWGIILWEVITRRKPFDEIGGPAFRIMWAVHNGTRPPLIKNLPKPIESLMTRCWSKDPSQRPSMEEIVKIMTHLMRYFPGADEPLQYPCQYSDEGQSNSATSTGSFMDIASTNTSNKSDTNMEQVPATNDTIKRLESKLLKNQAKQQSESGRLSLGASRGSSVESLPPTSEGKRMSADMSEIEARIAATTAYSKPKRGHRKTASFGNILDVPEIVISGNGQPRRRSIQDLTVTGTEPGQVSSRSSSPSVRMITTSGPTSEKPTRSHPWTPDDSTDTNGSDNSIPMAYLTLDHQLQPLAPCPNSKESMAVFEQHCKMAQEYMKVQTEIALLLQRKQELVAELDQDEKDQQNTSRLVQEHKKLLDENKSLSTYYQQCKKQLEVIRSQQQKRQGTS
T8 sequence (P07949 29-1114 V804M): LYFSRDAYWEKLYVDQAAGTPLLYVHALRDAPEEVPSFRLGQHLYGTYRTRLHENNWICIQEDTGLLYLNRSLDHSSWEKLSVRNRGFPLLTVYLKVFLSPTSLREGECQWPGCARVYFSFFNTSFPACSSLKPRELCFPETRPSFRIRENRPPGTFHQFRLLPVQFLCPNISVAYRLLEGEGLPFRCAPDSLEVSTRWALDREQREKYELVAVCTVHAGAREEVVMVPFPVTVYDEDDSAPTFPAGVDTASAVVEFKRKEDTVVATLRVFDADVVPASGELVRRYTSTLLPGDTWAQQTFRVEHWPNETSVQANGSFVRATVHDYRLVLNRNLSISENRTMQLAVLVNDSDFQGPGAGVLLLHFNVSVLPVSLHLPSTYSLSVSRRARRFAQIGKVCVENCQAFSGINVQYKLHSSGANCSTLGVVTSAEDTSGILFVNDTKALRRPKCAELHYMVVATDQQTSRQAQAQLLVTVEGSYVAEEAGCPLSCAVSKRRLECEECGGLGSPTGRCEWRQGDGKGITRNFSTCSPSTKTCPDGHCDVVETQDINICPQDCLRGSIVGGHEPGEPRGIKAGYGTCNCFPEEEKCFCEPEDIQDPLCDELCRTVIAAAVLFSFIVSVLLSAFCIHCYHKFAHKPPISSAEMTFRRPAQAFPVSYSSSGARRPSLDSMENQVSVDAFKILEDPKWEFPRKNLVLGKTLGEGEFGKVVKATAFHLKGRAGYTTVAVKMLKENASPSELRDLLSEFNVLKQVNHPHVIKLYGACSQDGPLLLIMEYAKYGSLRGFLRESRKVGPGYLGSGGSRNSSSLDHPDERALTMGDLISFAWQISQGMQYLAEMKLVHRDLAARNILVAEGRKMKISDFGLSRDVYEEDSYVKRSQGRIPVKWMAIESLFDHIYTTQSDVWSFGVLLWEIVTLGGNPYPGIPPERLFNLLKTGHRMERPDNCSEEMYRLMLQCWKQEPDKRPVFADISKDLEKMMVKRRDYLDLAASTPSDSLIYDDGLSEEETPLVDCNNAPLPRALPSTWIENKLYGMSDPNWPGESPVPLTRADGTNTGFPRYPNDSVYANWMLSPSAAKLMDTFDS
T4 sequence (P52333 813-1124 limits assumed): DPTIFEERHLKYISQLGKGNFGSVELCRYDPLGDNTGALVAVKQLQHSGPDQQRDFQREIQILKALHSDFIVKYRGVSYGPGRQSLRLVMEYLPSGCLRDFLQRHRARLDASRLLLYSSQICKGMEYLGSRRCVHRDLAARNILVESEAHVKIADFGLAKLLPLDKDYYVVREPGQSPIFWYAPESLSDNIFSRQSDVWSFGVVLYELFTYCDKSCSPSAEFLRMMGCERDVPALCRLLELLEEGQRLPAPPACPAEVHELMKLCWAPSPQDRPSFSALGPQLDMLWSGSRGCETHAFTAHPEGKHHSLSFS

In the case of `Cc1cccc(-c2cnc3occ(-c4ccc(C(=O)O)c(C5CCCC5)c4)c3c2)c1` [SGC-CAMKK2-1 (YL-36)], the remaining binding at 1 µM was 100% on ADCK4; 100% at VRK2; 98% at DDR1; 100% in [1]; 100% on QSK; 100% at CSNK1G1. For the same compound, the remaining binding at 1 µM at PRKD3 was determined as 77%; at RET(V804M), 100%; at TSSK1B, 100%; on YANK3, 100%; in assay [2], 100%; at CDKL3, 96%. Also, the remaining binding at 1 µM at TAK1 came out at 91%; on PIK3CA(I800L) it was 85%.

For `O=C(O)c1ccc(-c2coc3ncc(-c4ccccc4)cc23)cc1Cl` [SGC-CAMKK2-1N (UNC-YL-83)], the remaining binding at 1 µM at OSR1 amounted to 64%; at AKT1 it was 100%; on RAF1 it was 79%; at INSR, 93%; on FLT3(D835Y), 100%; on NEK2 it was 97%. The remaining binding at 1 µM at PIK3CG is 66%; at KIT(V559D) it was 70%; on ULK1, 66%; at KIT(D816H), 57%; at TESK1, 59%; on PKMYT1, 94%. Moreover, the remaining binding at 1 µM on PCTK3 came out at 100%; on MAK, 83%; on MEK4, 81%; on LATS2 it was 87%; on FLT3(K663Q), 100%; at ALK it was 66%. Moreover, the remaining binding at 1 µM on EGFR(L858R) stood at 100%; on BTK, 60%.
